# Assay results taken from patent US10028949B2, “Parenteral formulations of lipophilic pharmaceutical agents and methods for preparing and using the same” (priority 2011, dated 2018).
# Where two headings read alike, the source gives them in different places.
# Assays:
# [1] = cited from earlier work; for incidence of neurotoxicity, especially serious generalized seizure activity: after Bu-based conditioning therapy
# [2] = Stability of Bu formulations by HPLC; type: physicochemical; settings: for stability maintained: stock formulation diluted with D5W
# Procedure: It was initially important to describe short-term stability of the Bu/acetone/PEG mixture. This was necessary to determine if the vacuum-extraction step could be utilized without undue chemical degradation of Bu. The Bu (5 mg/mL) in acetone/PEG400 (1:2, v/v) was incubated at room temperature and quantified by HPLC after 0, 1, 2, 4, 8 and 24 hours. Second, the inventors confirmed that Bu would be stable in the VE-acetone/PEG/Bu complex. Therefore, to determine long-term stability Bu was dissolved in acetone (10 mg/mL), then mixed with PEG 400 (ratio 1:2, v/v). The acetone was extracted from the mixture under vacuum at room temperature (RT). The VE-acetone/PEG400/Bu was stored either at room temperature or 37° C. for 2 months in sealed tubes. Finally, Bu (1 mg/mL) in the final use formulation of VE-acetone/PEG 400/D5W (0:40:60, v/v/v), was incubated at room temperature and analyzed by HPLC at 0, 1, 2, 4, 8 and 15 hours to determine short-term stability. Triplicate samples were quantitatively analyzed with HPLC at all time points after appropriate dilution of the samples in the stability studies.
# Bu was dissolved at a concentration of about 10 mg/mL in acetone only or in VE-acetone/PEG (prototype stock solvent vehicle) and incubated at RT (22° C.) and at 37° C. The resulting Bu concentration was measured by HPLC in samples taken immediately after solubilization, then every few hours for 8 hours, and then at gradually increasing time intervals for up to 60 days.
structure (smiles),measurement,setting,value
"CS(=O)(=O)OCCCCOS(C)(=O)=O [Busulfan, 1,4-butanediol dimethanesulfonate]","incidence of neurotoxicity, especially serious generalized seizure activity",[1]; adults,≤ 10%
same,"incidence of neurotoxicity, especially serious generalized seizure activity",[1]; children,approximately 7%
same,"EEG abnormalities, patients",[1]; without overt seizure activity,up to 60%
same,"time stable in solution, stock formulation","[2]; Bu/VE-acetone/PEG stock formulation, approximately 5 mg/mL, RT",≥ 60 days
same,"time stable, final use-formulation","[2]; VE-acetone/PEG diluted with aqueous diluent to 1 mg/mL, RT",at least 15 hours
same,stability in DMSO,[2]; in DMSO,rapidly started degrading
same,time stably dissolved,"[2]; in acetone and DMA, RT",at least 7 days
same,"time stable, final clinical use-formulation","[2]; reconstituted with D5W, 0.5 to 2 mg/mL, RT",at least 15 hours
same,stability maintained,[2]; up to 15 hours at 1 mg/ml,~100%
same,stability maintained,[2]; up to 25 hours at 0.5 mg/ml,~100%
